Test results from US12522614B2, “Topical phosphoinositide 3-kinase inhibitors” (VENTHERA, INC., priority 2019, dated 2026).

Experiments:
[1] = In vitro human skin permeation study of topical gel formulations (Franz diffusion cells); assay type: in vitro ADME; details: Study-1, Example 8 gel, human skin
Excerpt: The gel formulation of Example 8 was used as the donor phase to determine the permeation of Compound 1.002 through human skin and its effectiveness as a topical application. Three skin donors and three diffusion cells (for each donor) per formulation were used in the in vitro skin permeation experiments. Split thickness dermatomed (approximately at […] thickness) human cadaver skin, supplied by New York Firefighters Skin Bank, NY, was used to determine the permeation rate of the tested compound (i.e., the drug) in vitro. All in vitro skin permeation studies were conducted using the Vertical Diffusion Cells assembly with consoles (Model FDC-6), and heating controllers (Logan Instruments Inc. Somerset, NJ). Each assembly consisted of six vertical, jacketed (37° C.±0.5° C.) 12-mL Franz diffusion cells with magnetic stirrer and 1.767 cm^2 diffusion area.
Skin flux studies were run for a period of 48 hours. At predetermined intervals (2, 4, 8, 24 and 48 hours) after starting the experiment, the entire contents of the receiver compartment were collected for determining concentrations of the drug by HPLC. The receiver compartment was refilled with fresh receiver medium. The receiver medium was pH 7.4 phosphate buffer with 0.5 mg/ml of Oleath 20 with the saturation concentration of the drug in the receptor medium being 0.152 mg/ml. This solubility of the drug in the receiver medium was enough to ensure sink conditions throughout each collection interval.
Samples of the receptor phase were obtained at 2, 4, 8, 12, 24 and 48 h and concentrations of Compound 1.002 and 3-(4-morpholinothieno(3,2-d)pyrimidin-2-yl)phenol (metabolite of Compound 1.002, abbreviated as MTPP) were determined using a validated HPLC method. The metabolism of Compound 1.002 to MTPP takes place in the human skin by esterase enzymes.
HPLC method: Column—Gemini C-18 4.6×150 mm, 5 μm particle size; Mobile Phase—water:acetonitrile 25:75 containing 0.1% TFA; Flow Rate—1 mL/min; Detection—274 nm; Column Temperature—40° C.; and Run Time—10 min. The retention times for MTPP and Compound 1.002 were 3.9 and 7.2 minutes, respectively.
The skin flux of drugs and cumulative amount of drugs permeated (sum of MTPP and Compound 1.002) for a period of 48 hours were calculated and are shown in Table 3. FIG. 3 represents a plot of Cumulative amount permeated versus time.

[2] = Stability study of Compound 1.002 as API (HPLC assay); assay type: physicochemical
Excerpt: The stability of three lots of Compound 1.002 as Active Pharmaceutical Ingredient (API) was studied for a period of 12 months.

MTOR/FRAP1 = target: T1, MTOR/FRAP1 (Homo sapiens, UniProt P42345); assay: Lipid kinase inhibitory activity, ADP-Glo; assay type: biochemical
T1 construct: purchased Reaction Biology Corporation (RBC)
Description: (§1) Lipid kinases: Lipid kinases from Reaction Biology Corporation (RBC) in ADP-Glo format were used.
(§2) Assay Description: The kinase reactions utilized ATP and produced ADP as a byproduct. The ADP production was quantified by ADP-Glo luminescence detection. This assay was a 3-step reaction. First, the kinase reaction with lipid substrate was carried out in the presence of ATP, and the reaction was quenched and depleted remaining ATP with ADP-Glo™ reagent, and then finally ADP was converted to ATP which was measured using a luciferase/luciferin reaction.
(§3) Assay Procedure: The assay was performed according to the steps as follows: • 1. Preparing substrate in freshly prepared reaction buffer; • 2. Delivering kinase into the substrate solution and gently mixing; • 3. Delivering compounds in […] into the kinase reaction mixture by Acoustic technology (Echo550; nanoliter range), incubating for 20 minutes at room temperature; • 4. Delivering ATP into the reaction mixture to initiate the reaction; • 5. Incubating for 30 minutes at 30° C.; • 6. Quenching the reaction with ADP-Glo reagent and incubating for 40 minutes; • 7. Adding Detection Mixture and incubating for 30 minutes; and • 8. Measuring luminescence.
(§4) Data Analysis: The luminescence was converted into μM ADP production based on ADP standard curves. The nonlinear regression to obtain the standard curve and IC50 values were performed using Graphpad Prism software.

PI3K (p110a(E542K)/p85a) = target: T2, PI3K (p110a(E542K)/p85a) (Homo sapiens, UniProt P42336, E542K); assay: Lipid kinase inhibitory activity, ADP-Glo; assay type: biochemical; details: α E542K
T2 construct: purchased Reaction Biology Corporation (RBC)
Description: as §1, §2, §3, §4

PI3K (p110a(E545K)/p85a) = target: T3, PI3K (p110a(E545K)/p85a) (Homo sapiens, UniProt P42336, E545K); assay: Lipid kinase inhibitory activity, ADP-Glo; assay type: biochemical; details: α E545K
T3 construct: purchased Reaction Biology Corporation (RBC)
Description: as §1, §2, §3, §4

[3] = target: T4, PI3K (p110a(H1047R)/p85a) (Homo sapiens, UniProt P42336, H1047R); assay: Lipid kinase inhibitory activity, ADP-Glo; assay type: biochemical; details: α H1047R
T4 construct: purchased Reaction Biology Corporation (RBC)
Description: as §1, §2, §3, §4

PI3Ka (p110a/p85a) = target: T5, PI3Ka (p110a/p85a) (Homo sapiens, UniProt P42336); assay: Lipid kinase inhibitory activity, ADP-Glo; assay type: biochemical; details: α
T5 construct: purchased Reaction Biology Corporation (RBC)
Description: as §1, §2, §3, §4

PI3Kb (p110b/p85a) = target: T6, PI3Kb (p110b/p85a) (Homo sapiens, UniProt P42338); assay: Lipid kinase inhibitory activity, ADP-Glo; assay type: biochemical; details: β
T6 construct: purchased Reaction Biology Corporation (RBC)
Description: as §1, §2, §3, §4

PI3Kd (p110d/p85a) = target: T7, PI3Kd (p110d/p85a) (Homo sapiens, UniProt O00329); assay: Lipid kinase inhibitory activity, ADP-Glo; assay type: biochemical; details: δ
T7 construct: purchased Reaction Biology Corporation (RBC)
Description: as §1, §2, §3, §4

PI3Kg (p110g) = target: T8, PI3Kg (p110g) (Homo sapiens, UniProt P48736); assay: Lipid kinase inhibitory activity, ADP-Glo; assay type: biochemical; details: γ
T8 construct: purchased Reaction Biology Corporation (RBC)
Description: as §1, §2, §3, §4

T4 sequence (P42336 whole entry H1047R): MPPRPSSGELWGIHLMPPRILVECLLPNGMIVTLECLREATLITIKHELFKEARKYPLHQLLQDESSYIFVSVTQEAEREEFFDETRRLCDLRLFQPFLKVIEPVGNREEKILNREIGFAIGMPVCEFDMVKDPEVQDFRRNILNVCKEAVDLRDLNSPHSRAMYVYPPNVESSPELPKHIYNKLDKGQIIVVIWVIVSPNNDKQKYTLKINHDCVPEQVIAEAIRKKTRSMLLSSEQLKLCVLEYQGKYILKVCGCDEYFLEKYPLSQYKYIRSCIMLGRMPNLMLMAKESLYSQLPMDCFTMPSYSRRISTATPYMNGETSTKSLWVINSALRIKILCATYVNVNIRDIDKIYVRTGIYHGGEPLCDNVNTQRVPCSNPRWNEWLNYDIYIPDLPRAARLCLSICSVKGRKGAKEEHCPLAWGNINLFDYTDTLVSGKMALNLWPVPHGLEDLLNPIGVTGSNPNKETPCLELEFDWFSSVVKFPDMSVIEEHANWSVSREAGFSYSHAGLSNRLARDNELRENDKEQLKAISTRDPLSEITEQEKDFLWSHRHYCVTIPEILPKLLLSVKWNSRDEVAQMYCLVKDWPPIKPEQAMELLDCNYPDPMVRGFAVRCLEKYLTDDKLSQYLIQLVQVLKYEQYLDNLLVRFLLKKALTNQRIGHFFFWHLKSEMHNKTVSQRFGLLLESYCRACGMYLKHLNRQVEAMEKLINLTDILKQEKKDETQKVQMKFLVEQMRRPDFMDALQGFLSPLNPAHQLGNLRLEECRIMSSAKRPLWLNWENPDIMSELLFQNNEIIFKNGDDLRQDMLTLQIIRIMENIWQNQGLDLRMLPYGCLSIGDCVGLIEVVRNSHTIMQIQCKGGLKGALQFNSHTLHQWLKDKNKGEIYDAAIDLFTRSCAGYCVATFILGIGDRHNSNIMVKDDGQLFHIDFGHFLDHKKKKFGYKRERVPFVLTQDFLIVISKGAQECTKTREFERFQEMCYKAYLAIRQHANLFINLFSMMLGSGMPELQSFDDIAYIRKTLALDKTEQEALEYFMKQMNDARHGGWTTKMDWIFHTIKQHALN
T4 sequence (P27986 whole entry partner): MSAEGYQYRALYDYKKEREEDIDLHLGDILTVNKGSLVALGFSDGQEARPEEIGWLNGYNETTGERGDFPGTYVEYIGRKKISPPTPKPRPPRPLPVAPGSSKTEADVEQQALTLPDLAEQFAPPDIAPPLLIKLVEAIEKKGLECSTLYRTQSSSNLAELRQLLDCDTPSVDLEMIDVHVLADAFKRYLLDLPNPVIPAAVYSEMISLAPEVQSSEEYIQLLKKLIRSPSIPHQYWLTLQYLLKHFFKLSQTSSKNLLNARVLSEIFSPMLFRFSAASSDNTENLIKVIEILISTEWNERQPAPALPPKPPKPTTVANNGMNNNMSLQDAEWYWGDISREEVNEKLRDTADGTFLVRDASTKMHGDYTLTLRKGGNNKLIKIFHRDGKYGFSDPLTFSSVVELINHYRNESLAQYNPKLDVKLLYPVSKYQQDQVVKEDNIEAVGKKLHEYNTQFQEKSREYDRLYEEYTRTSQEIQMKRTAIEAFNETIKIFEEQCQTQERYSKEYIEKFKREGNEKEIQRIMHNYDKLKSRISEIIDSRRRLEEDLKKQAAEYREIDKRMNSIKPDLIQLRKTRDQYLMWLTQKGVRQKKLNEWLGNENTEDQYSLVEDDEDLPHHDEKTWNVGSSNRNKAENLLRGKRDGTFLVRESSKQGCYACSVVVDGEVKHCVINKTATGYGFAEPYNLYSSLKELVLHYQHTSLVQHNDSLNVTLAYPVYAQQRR
T3 sequence (P42336 whole entry E545K): as the sequence (P42336 whole entry H1047R) above, with E545K, R1047H counted along it
T3 sequence (P27986 whole entry partner): as the sequence (P27986 whole entry partner) above
T2 sequence (P42336 whole entry E542K): as the sequence (P42336 whole entry H1047R) above, with E542K, R1047H counted along it
T2 sequence (P27986 whole entry partner): as the sequence (P27986 whole entry partner) above
T8 sequence (P48736 whole entry): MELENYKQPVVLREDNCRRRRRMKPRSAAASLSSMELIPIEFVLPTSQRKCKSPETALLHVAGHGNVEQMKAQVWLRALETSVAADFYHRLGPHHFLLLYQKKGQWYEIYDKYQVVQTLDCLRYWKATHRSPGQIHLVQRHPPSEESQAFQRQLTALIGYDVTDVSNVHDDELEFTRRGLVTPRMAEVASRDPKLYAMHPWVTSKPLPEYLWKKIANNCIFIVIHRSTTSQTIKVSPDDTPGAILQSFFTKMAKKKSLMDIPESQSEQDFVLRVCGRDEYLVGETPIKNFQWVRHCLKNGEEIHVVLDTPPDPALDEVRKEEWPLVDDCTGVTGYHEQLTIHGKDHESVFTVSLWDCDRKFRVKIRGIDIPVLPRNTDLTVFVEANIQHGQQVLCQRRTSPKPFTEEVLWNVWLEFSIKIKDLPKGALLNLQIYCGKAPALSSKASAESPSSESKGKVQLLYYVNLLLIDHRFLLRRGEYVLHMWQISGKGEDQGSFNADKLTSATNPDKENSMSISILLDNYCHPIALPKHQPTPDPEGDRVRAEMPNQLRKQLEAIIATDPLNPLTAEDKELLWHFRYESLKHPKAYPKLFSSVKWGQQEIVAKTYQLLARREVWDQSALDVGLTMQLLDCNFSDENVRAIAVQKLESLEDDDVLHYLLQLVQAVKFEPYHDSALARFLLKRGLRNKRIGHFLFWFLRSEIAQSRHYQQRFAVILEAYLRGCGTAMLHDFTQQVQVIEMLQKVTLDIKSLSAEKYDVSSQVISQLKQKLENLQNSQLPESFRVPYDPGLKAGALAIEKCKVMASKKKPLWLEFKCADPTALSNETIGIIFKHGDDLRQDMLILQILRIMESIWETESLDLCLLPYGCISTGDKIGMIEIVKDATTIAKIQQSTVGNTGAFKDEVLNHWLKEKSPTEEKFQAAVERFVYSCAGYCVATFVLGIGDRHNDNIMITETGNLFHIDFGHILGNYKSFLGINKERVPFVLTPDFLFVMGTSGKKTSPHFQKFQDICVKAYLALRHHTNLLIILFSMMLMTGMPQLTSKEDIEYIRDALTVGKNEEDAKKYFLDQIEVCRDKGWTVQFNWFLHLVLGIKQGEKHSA
T7 sequence (O00329 whole entry): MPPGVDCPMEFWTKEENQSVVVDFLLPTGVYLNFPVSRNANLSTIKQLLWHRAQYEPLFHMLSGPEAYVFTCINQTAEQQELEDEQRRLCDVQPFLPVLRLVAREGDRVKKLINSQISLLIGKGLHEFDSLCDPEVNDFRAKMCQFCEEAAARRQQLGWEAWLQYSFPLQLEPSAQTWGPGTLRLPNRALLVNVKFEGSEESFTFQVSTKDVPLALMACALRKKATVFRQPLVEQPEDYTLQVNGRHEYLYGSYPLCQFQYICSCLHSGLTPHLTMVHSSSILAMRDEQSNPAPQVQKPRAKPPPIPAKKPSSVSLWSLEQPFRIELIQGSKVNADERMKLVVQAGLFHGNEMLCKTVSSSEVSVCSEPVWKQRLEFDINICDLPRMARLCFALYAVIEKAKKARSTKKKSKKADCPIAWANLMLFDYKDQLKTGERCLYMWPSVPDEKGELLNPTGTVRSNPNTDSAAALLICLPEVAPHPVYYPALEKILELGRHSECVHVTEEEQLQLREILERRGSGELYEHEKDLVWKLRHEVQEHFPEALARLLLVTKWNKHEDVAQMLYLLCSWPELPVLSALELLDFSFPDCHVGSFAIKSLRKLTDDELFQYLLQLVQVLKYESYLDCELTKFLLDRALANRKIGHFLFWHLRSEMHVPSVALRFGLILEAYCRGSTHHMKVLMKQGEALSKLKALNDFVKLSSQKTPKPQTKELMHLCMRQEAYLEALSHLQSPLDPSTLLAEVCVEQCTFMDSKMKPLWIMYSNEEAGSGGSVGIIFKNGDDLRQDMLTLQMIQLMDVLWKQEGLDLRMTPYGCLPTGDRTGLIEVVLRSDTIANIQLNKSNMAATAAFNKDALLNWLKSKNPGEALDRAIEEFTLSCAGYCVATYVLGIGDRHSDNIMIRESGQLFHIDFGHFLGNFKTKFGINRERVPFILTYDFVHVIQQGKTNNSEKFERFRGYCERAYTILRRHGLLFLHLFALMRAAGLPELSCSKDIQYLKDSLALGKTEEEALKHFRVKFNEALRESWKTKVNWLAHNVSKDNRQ
T7 sequence (P27986 whole entry partner): as the sequence (P27986 whole entry partner) above
T5 sequence (P42336 whole entry): as the sequence (P42336 whole entry H1047R) above, with R1047H counted along it
T5 sequence (P27986 whole entry partner): as the sequence (P27986 whole entry partner) above

For `CC(=O)Oc1cccc(-c2nc(N3CCOCC3)c3sccc3n2)c1` [Compound 1.002, 3-(4-Morpholinothieno[3,2-d]pyrimidin-2-yl)phenyl Acetate], the “Hydrolysis of Cmpd. 1.002 to MTPP” value ([1]; Donor 2, 4 h) was 100%, the “Cumulative permeation, Cmpd. 1.002” value ([1]; Donor 3, 2 h) was 0.00 μg/cm^2 and the “Compound 1.002 Purity by a HPLC Assay Method” value (“Compound 1.002 Purity” below) ([2]; Lot-1, 25° C./60% RH, 0 months) was 99.5%. For the same compound, the “Compound 1.002 Purity” value ([2]; Lot-1, 25° C./60% RH, 3 months) was 99.4%, the “Compound 1.002 Purity” value ([2]; Lot-1, 25° C./60% RH, 6 months) was 99.6% and the “Compound 1.002 Purity” value ([2]; Lot-1, 25° C./60% RH, 9 months) was 99.8%. For the same compound, the “Compound 1.002 Purity” value ([2]; Lot-1, 25° C./60% RH, 12 months) was 99.9%, the “Compound 1.002 Purity” value ([2]; Lot-1, 40° C./75% RH, 0 months) was 99.5% and the “Compound 1.002 Purity” value ([2]; Lot-1, 40° C./75% RH, 3 months) was 99.2%. For the same compound, the “Compound 1.002 Purity” value ([2]; Lot-1, 40° C./75% RH, 6 months) was 99.5%, the “Compound 1.002 Purity” value ([2]; Lot-2, 40° C./75% RH, 0 months) was 99.4% and the “Compound 1.002 Purity” value ([2]; Lot-2, 40° C./75% RH, 1 month) was 100.0%. For the same compound, the “Compound 1.002 Purity” value ([2]; Lot-2, 40° C./75% RH, 2 months) was 99.3%, the “Compound 1.002 Purity” value ([2]; Lot-2, 40° C./75% RH, 3 months) was 97.9% and the “Compound 1.002 Purity” value ([2]; Lot-2, 40° C./75% RH, 6 months) was 100.0%. For the same compound, the “Compound 1.002 Purity” value ([2]; Lot-3, 40° C./75% RH, 0 months) was 100.0%, the “Compound 1.002 Purity” value ([2]; Lot-3, 40° C./75% RH, 1 month) was 100.0% and the “Compound 1.002 Purity” value ([2]; Lot-3, 40° C./75% RH, 2 months) was 100.0%. For the same compound, the “Compound 1.002 Purity” value ([2]; Lot-3, 40° C./75% RH, 3 months) was 98.9%, the “Compound 1.002 Purity” value ([2]; Lot-3, 40° C./75% RH, 6 months) was 100.0% and the IC50 (MTOR/FRAP1) was 1410 nM. The IC50 (PI3K (p110a(E542K)/p85a)) was 42 nM, the IC50 (PI3K (p110a(E545K)/p85a)) was 49 nM and the IC50 [3] was 59 nM. For the same compound, the IC50 (PI3Ka (p110a/p85a)) was 35 nM, the IC50 (PI3Kb (p110b/p85a)) was 257 nM and the IC50 (PI3Kd (p110d/p85a)) was 83 nM. It also gave an IC50 (PI3Kg (p110g)) of 544 nM.
